Consider one sequence from patent US12435109B2, “Compositions and methods for dissolving protein aggregates” (REJUKON BIOPHARM INC., priority 2020, dated 2025).

“Also recorded” adds a separate entry of the source.

The subject of assay [1] is FUS-GFP protein aggregates in motor neurons. Description: FUS-GFP protein aggregates in primary cultured motor neurons, live imaging. The assay is classed as cell-based, rat. The settings on record: 20 μM polypeptide. Here is the method: Real-time imaging technology using fluorescence microscope was used to observe the cell culture. […] The left 2-3 images are the microscopic images when the polypeptides were just added (0 min); the middle images are the microscopic images at different time points (30 minutes, 60 minutes, 90 minutes) after the polypeptides were added, and the right image is the microscopic image at 120 minutes after adding the polypeptides.
(§1) An ALS rat motor neuron model that can be used to overexpress FUS-GFP protein and SOD1 (G93A) protein was generated using the following steps.
After the E13.5 rat is anesthetized, open the abdominal cavity and take out the uterus to a 10 cm dish. Add HBSS, use scissors and tweezers to remove the embryos to a new 10 cm dish. Separate the head and trunk of the embryo and move to anatomical spinal cord under a stereoscope. With the torso facing up, fix the hind limbs with a microscopic forceps. After finding the translucent spine, use another microscopic forceps to lift the skin forward and upward, and then open the connection on the side of the spine. Pick up the spine from the tail. Fix the head of the spine with the back side facing up and pick up the membrane. Turn the abdomen up, peel off the membrane, most of the DRG was removed. Remove the DRG attached to the spinal cord and move to a new 6 cm dish. Use micro tweezers to move the spinal cord to a 5 ml centrifuge tube, use tweezers to crush it to a size of 1 mm, add 1× Trypsin (diluted by HBSS), and place in a 37° C. incubator for 25-30 minutes. Use a 1 ml pipette tip to suck the tissue mass into the preheated 3 ml MN Medium and blow away the tissue mass. Pass the 40 um filer, transfer the cells to a 5 ml centrifuge tube, centrifuge at 400 g, 5 min to remove the supernatant. Resuspend the cells in 3 mlMN medium, take 10 ul and count. […]
A rat motor neuron model of ALS pathogenic FUS protein aggregates was prepared according to Example 4. […] The dissolution effect of the polypeptides on proteins aggregates in motor neurons was recorded with live images using laser confocal fluorescence microscope. […]

Assay [2] concerns SOD1(G93A)-GFP protein aggregates in motor neurons. Put plainly: SOD1(G93A) protein aggregates in primary cultured motor neurons, live imaging. The assay is classed as cell-based, rat. The conditions noted are these: 20 μM polypeptide. Here is the method:
Real-time imaging technology using fluorescence microscope was used to observe the cell culture. The left panel is the polypeptide RJK001; the right panel is the control polypeptide RJK005. […] The right image in each panel is the microscopic image at 24 hours after adding the polypeptides.
as §1
After the E13.5 rat is anesthetized, open the abdominal cavity and take out the uterus to a 10 cm dish. Add HBSS, use scissors and tweezers to remove the embryos to a new 10 cm dish. Separate the head and trunk of the embryo and move to anatomical spinal cord under a stereoscope. With the torso facing up, fix the hind limbs with a microscopic forceps. After finding the translucent spine, use another microscopic forceps to lift the skin forward and upward, and then open the connection on the side of the spine. Pick up the spine from the tail. Fix the head of the spine with the back side facing up and pick up the membrane. Turn the abdomen up, peel off the membrane, most of the DRG was removed. […]
A rat motor neuron model of ALS pathogenic SOD1 (G93A) protein aggregates was prepared according to Example 4. […] The dissolution effect of the polypeptides on proteins aggregates in motor neurons was recorded with live images using laser confocal fluorescence microscope. […]

Assay [3] concerns TIA1 protein aggregates in SH-SY5Y cells. Put plainly: TIA1 protein aggregates in heat-shocked SH-SY5Y cell model. The assay is classed as cell-based. The conditions noted are these: heat shock 42° C. 1 hour, 1 μg polypeptide-plasmid.
The subject of assay [4] is FUS protein aggregates in SH-SY5Y cells. Description: FUS protein aggregates in heat-shocked SH-SY5Y cell model overexpressing FUS. The assay is classed as cell-based. The conditions noted are these: heat shock 42° C. 1 hour, 1 μg polypeptide-plasmid.
Description: Polypeptides RJK001˜RJK004 and control polypeptides RJK005˜RJK007 were transfected into the SH-SY5Y cell model overexpressing FUS-mCherry after heat stimulation. The staining of G3BP1 represents the stress granule.
Polypeptides RJG001˜RJG003 and control polypeptide RJK005 were transfected into the SH-SY5Y cell model overexpressing FUS-mCherry after heat stimulation. The staining of G3BP1 represents the stress granule.
(§2) An SH-SY5Y cell model that overexpresses FUS-GFP protein or TDP-43-mCherry protein was generated using the following steps:
SH-SY5Y cells were cultured in DMEM/F12 medium containing 10% fetal bovine serum in a 37° C., 5% carbon dioxide incubator. […]
(§3) The SH-SY5Y cell model (initially cultured at 37° C.) transfected with the FUS plasmid according to Example 2 was placed in a 42° C. incubator for 1 hour for heat shock treatment to cause FUS protein aggregation. […] Laser confocal fluorescence microscope was used to observe the accumulation of overexpressed FUS in SH-SY5Y cells.
as §3

Assay [5] relates to TDP-43 protein aggregates in SH-SY5Y cells. Description: TDP-43 protein aggregates in heat-shocked SH-SY5Y cell model overexpressing TDP-43-mCherry. The assay is classed as cell-based. The settings on record: SH-SY5Y overexpressing TDP-43-mCherry, heat shock 42° C. 1 hour, 1 μg polypeptide-plasmid. Here is the method: Polypeptides RJK001˜RJK004 and control polypeptides RJK005˜RJK007 were transfected into the SH-SY5Y cell model overexpressing TDP-43-mCherry after heat stimulation. The staining of G3BP1 represents the stress granule.
as §2
SH-SY5Y cells were cultured in DMEM/F12 medium containing 10% fetal bovine serum in a 37° C., 5% carbon dioxide incubator. After the cell confluence reaches 80%, the culture medium was removed using a vacuum pump or pipette. The cells were washed once with PBS. Add trypsin-EDTA (0.05%) to the culture dish and incubate it in a 37° C. cell incubator for 1 min. Add twice the volume of culture medium to stop the digestion, and gently blow the cells to suspend the cells into a uniform cell suspension. Add the cell suspension to a 15 mL centrifuge tube and centrifuge at 1200 rpm for 3 minutes. Discard the supernatant and resuspend the cells in fresh complete medium. […]
The SH-SY5Y cell model (initially cultured at 37° C.) transfected with the TDP-43 plasmid prepared according to Example 2 was placed in a 42° C. incubator for 1 hour for heat shock treatment to cause the TDP43 protein to separate and aggregate. […] Laser confocal fluorescence microscopy was used to observe the accumulation of TDP-43 and cell-endogenous G3BP1 in SH-SY5Y cells.

On to “TEPQEESEEEVEEPEERQQTPEVVPDDSGTFYDQTVSNDLE [RJK001, polypeptide capable of dissolving protein aggregates]”, for which the “aggregation of ALS pathogenic FUS protein in motor neurons at 90 minutes after adding polypeptide” value in assay [1] (90 minutes) was “began to dissolve significantly”. Moreover, the “aggregation of ALS pathogenic FUS protein in motor neurons after 120 minutes” value in assay [1] (120 minutes) is on record as “essentially dissolved”. Besides, in assay [1] (motor neurons, day 10 in vitro, up to 120 minutes), the “dissolving effect on FUS protein aggregates in motor neurons” value is on record as “significant dissolving effect; also recorded: enhanced the dissolution”. Moreover, in assay [2], the “aggregation of SOD1 (G93A) protein in motor neurons at 24 hours after adding polypeptide” value was “dissolved significantly”. Further, in assay [2] (motor neurons, day 10 in vitro, 24 hours), the “dissolving effect on SOD1 (G93A) protein aggregates in motor neurons” value is “significant dissolving effect; also recorded: enhanced the dissolution”. For the same sequence, the “dissolution of TIA1 protein aggregates / number of phase-separated droplets of TIA1 protein in SH-SY5Y cells versus control” value in assay [3] is recorded as “significantly less; also recorded: significant dissolving effect”. The “dissolution of FUS protein aggregates / number of phase-separated droplets of FUS protein in SH-SY5Y cells versus control” value in assay [4] is “significantly less; also recorded: significant dissolving effect”. For the same sequence, the “dissolution of TDP-43 protein aggregates / number of phase-separated droplets of TDP-43 protein in SH-SY5Y cells versus control” value in assay [5] is “significantly less; also recorded: significant dissolving effect”.
